# In patent publication US9045505B2, “Nitric oxide donors” (University of Otago, priority 2006, dated 2015):
# What was measured:
# [1] = test system: liver or heart mitochondria; experiment: Visualisation of S-nitrosated mitochondrial proteins by Cy3 maleimide labelling; assay type: biochemical, rat; conditions: 10 μM MitoSNAP or 500 μM diamide, 5 min
# Protocol: FIG. 11 is a series of graphs showing S-nitrosation of mitochondrial thiols by MitoSNAP. (a) Time course of S-nitrosation of mitochondrial proteins by MitoSNAP. Liver mitochondria (1 mg protein) were incubated in 1 ml KCl buffer supplemented with rotenone and succinate in the presence of 5 μM MitoSNAP. At various times mitochondria were treated with 10 mM N-ethylmaleimide (NEM), isolated by centrifugation and the S-nitrosothiol content assessed. Data are of a typical experiment showing means±range of duplicate samples for each time point, each measured in duplicate. The experiment was repeated twice. (b) S-nitrosation of mitochondrial proteins by different concentrations of MitoSNAP and SNAP. Aliquots of liver mitochondria were incubated with the indicated concentrations of MitoSNAP or SNAP for […] in the presence or absence of 500 nM FCCP and then assessed for S-nitrosothiol content as in (a). […] Data are of a typical experiment showing means±range of duplicate samples for each time point, each measured in duplicate. […] After further incubation for 5 min at 37° C. in the dark, the medium was removed and the content of S-nitrosated proteins was measured. […] S-nitrosated thiols were then selectively tagged with Cy3 maleimide and protein (10 μg) was then separated on a 12.5% SDS PAGE gel which was stained with coomassie blue and scanned for Cy3 fluorescence. […]
# complex I = conditions: 10 μM
# Protocol: (a) Effect of MitoSNAP on mitochondrial respiration. Heart mitochondria (1 mg protein/ml) were incubated in 1 ml KCl medium supplemented with 1 mM phosphate in an oxygen electrode with 5 mM glutamate and 5 mM malate, or succinate, and incubated with 10 μM MitoSNAP, 10 μM MitoNAP or carrier for 2 min (succinate) or 3 min (glutamate/malate), then 250 μM adenosine diphosphate (ADP) was added and the rate of respiration was measured. Respiration in the presence of MitoSNAP is expressed as a percentage of that with MitoNAP, and are means±sem from 3 separate mitochondrial preparations, each determined in triplicate; *p<0.05 by Student's paired t test. […] Bovine heart mitochondrial membranes (0.25 mg protein/ml) were incubated in 1 ml KCl medium in an O2 electrode at 37° C., and incubated with 75 μM MitoSNAP or MitoNAP, or ethanol carrier for 5 min in the presence or absence of rotenone, then 1 mM NADH or 10 mM succinate was added and the rate of respiration was measured. Data are expressed as respiration in the presence of MitoSNAP or MitoNAP as a percentage of the appropriate controls and are means±range of two separate experiments, each determined in triplicate. […] Then protein SNOs were labelled by maleimide-Cy3 and intact mitochondrial respiratory complexes were separated by BN-PAGE which was then scanned for Cy3 fluorescence. […]
# C2C12 cells = experiment: S-nitrosation of cellular protein thiols in C2C12 cells; assay type: cell-based, mouse; conditions: 5 μM
# Protocol: FIG. 11 is a series of graphs showing S-nitrosation of mitochondrial thiols by MitoSNAP. (a) Time course of S-nitrosation of mitochondrial proteins by MitoSNAP. Liver mitochondria (1 mg protein) were incubated in 1 ml KCl buffer supplemented with rotenone and succinate in the presence of 5 μM MitoSNAP. At various times mitochondria were treated with 10 mM N-ethylmaleimide (NEM), isolated by centrifugation and the S-nitrosothiol content assessed. Data are of a typical experiment showing means±range of duplicate samples for each time point, each measured in duplicate. The experiment was repeated twice. (b) S-nitrosation of mitochondrial proteins by different concentrations of MitoSNAP and SNAP. Aliquots of liver mitochondria were incubated with the indicated concentrations of MitoSNAP or SNAP for […] in the presence or absence of 500 nM FCCP and then assessed for S-nitrosothiol content as in (a). For the +NEM sample, 10 mM NEM was added to the mitochondria and 1 min later 5 μM MitoSNAP was added and incubated for a further 2.5 min. Data are of a typical experiment showing means±range of duplicate samples for each time point, each measured in duplicate. The experiment was repeated twice. (c) S-nitrosation of cellular protein thiols by MitoSNAP. […] After further incubation for 5 min at 37° C. in the dark, the medium was removed and the content of S-nitrosated proteins was measured. […] After 5 min at 37° C. in the dark, the medium was removed and the cells were processed to isolate a mitochondria-enriched fraction and S-nitrosated protein was then determined Data are mean±sem of triplicate determinations (+MitoSNO1), or mean±range of duplicate determinations (+FCCP). […] S-nitrosated thiols were then selectively tagged with Cy3 maleimide and protein (10 μg) was then separated on a 12.5% SDS PAGE gel which was stained with coomassie blue and scanned for Cy3 fluorescence. The Cy3 fluorescence (SNO) and coomassie staining (coomassie) of each gel is shown. […]
smiles,measurement,setting,value
"CC(=O)NC(C(=O)NCCCCC[P+](c1ccccc1)(c1ccccc1)c1ccccc1)C(C)(C)SN=O.CS(=O)(=O)[O-] (stereo not drawn) [MitoSNAP, [5-(2-acetylamino-3-methyl-3-nitrosothio-butyrylamino)-penty1]-triphenylphosphonium methanesulfonate]",Cy3 labelling of S-nitrosated proteins,[1],S-nitrosation of a large number of different proteins
same,inhibition of respiration relative to MitoNAP,complex I; glutamate/malate,about 30%
same,effect on respiration,complex I; succinate,very little effect
same,time of maximum S-nitrosation of cell proteins,C2C12 cells,5 to 10 min
same,S-nitrosation of proteins of a mitochondria-enriched cell fraction,C2C12 cells; 5 min,extensively S-nitrosated
same,extent of cell protein S-nitrosation,C2C12 cells; 5 min,considerably greater than that by SNAP
